Measured values: PubChem BioAssay (NCI)
Where “and” joins values, the source holds several entries; their conditions need not be identical. Equal entries are not always repeated.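 Compound exposure: 48 hours, 5 concentrations, 96-well plates. Here, GI50 denotes the concentration required for 50% inhibition of growth. The concentration for full growth arrest is given as TGI.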

How the values were obtained:
Assay in all cases: NCI-60 cell line screen, 48 h
CCRF-CEM leukemia = tested on: CCRF-CEM leukemia
HL-60(TB) leukemia = tested on: HL-60(TB) leukemia
SK-MEL-5 melanoma = tested on: SK-MEL-5 melanoma
SK-MEL-28 melanoma = tested on: SK-MEL-28 melanoma
DU-145 prostate = tested on: DU-145 prostate
COLO 205 colon = tested on: COLO 205 colon
SNB-75 CNS = tested on: SNB-75 CNS
NCI-H226 lung = tested on: NCI-H226 lung
KM12 colon = tested on: KM12 colon
MALME-3M melanoma = tested on: MALME-3M melanoma

| SMILES | TGI (CCRF-CEM leukemia) | TGI (HL-60(TB) leukemia) | TGI (SK-MEL-5 melanoma) | TGI (SK-MEL-28 melanoma) | TGI (DU-145 prostate) [µM] | TGI (COLO 205 colon) | TGI (SNB-75 CNS) | TGI (NCI-H226 lung) [µM] | TGI (KM12 colon) | TGI (MALME-3M melanoma) | GI50 (MALME-3M melanoma) [µM] | GI50 (SK-MEL-28 melanoma) [µM] | GI50 (SNB-75 CNS) [µM] | GI50 (CCRF-CEM leukemia) [µM] | GI50 (HL-60(TB) leukemia) | GI50 (SK-MEL-5 melanoma) [µM] | GI50 (COLO 205 colon) [µM] | GI50 (KM12 colon) [µM] |
| --- | --- | --- | --- | --- | --- | --- | --- | --- | --- | --- | --- | --- | --- | --- | --- | --- | --- | --- |
| C=CCC1(c2ccc(OC)cc2)C=CC(=O)CC1 (centres undefined) | > 100 µM | > 100 µM | > 100 µM | > 100 µM | > 100 | > 100 µM | > 100 µM | > 100 | > 100 µM |  |  |  |  |  |  |  |  |  |
| COC(=O)/C(=N\NC(N)=S)C(C(=O)OC)C(=O)C(=O)Nc1ccc(C)cc1 (centres undefined) | > 100 µM | > 100 µM | > 100 µM | > 100 µM |  | > 100 µM | > 100 µM | > 100 | > 100 µM | > 100 µM |  |  |  |  |  |  |  |  |
| Cc1cc2c(=O)c3ccccc3[nH]c2c(C(N)=O)c1C | > 100 µM |  | > 100 µM | > 100 µM |  | > 100 µM | > 100 µM | > 100 | > 100 µM | > 100 µM |  |  |  |  |  |  |  |  |
| Cc1ccccc1C(=O)c1cc(O)ccc1O | > 100 µM | > 100 µM | > 100 µM |  |  | > 100 µM | > 100 µM | > 100 | > 100 µM | > 100 µM |  |  |  |  |  |  |  |  |
| N#CNC(=NCc1ccccc1)N(Cc1ccccc1)Cc1ccccc1 | > 31.6 µM | > 31.6 µM | 26.7 µM | > 31.6 µM | > 100 |  |  | > 31.6 | > 31.6 µM |  |  |  |  |  |  |  |  |  |
| CN(C)CCC(/C=C/c1ccccc1)=N\Nc1ccccc1 | 15.2 µM | 4.28 µM | 13.1 µM | 3.54 µM |  | 3.7 µM | 13.7 µM |  | 13.2 µM | 13.1 µM |  |  |  |  |  |  |  |  |
| COCC(OC)C(CC=C(C#N)C#N)OC (centres undefined) | > 100 µM | > 100 µM | > 100 µM | > 100 µM |  | > 100 µM |  |  | > 100 µM | > 100 µM |  |  |  |  |  |  |  |  |
| CCOC(=O)c1nc2c(OC)nn(O)cc-2c1[N+](=O)[O-] | 50.9 µM | 46.4 µM |  | 29.9 µM |  | 61.9 µM |  | 79.6 | 28.2 µM | 32.4 µM |  |  |  |  |  |  |  |  |
| NNC(=O)CNc1cccc(Br)c1 |  | > 100 µM | > 100 µM | > 100 µM | > 100 | > 100 µM | > 100 µM | > 100 | > 100 µM | > 100 µM |  |  |  |  |  |  |  |  |
| COc1c(O)c2c(=O)cc3c4c5c(cc(=O)c6c(O)c(OC)c(CC(C)O)c(c(c1CC(C)O)c24)c65)OCO3 (centres undefined) | 16.7 µM | 5.1 µM | 2.94 µM | 4.23 µM |  | 0.765 µM | 7.56 µM | 6.66 | 4.09 µM | 1.27 µM |  |  |  |  |  |  |  |  |
| COc1ccc2c(c1OCC(=O)O)C(=O)C(CCC(=O)O)CC2 (centres undefined) | > 100 µM | > 100 µM | > 100 µM | > 100 µM |  | > 100 µM | > 100 µM |  |  |  |  |  |  |  |  |  |  |  |
| COC(=O)/C(C#N)=C1\N=NNN1c1ccc(OC)cc1 | > 100 µM |  | > 100 µM | > 100 µM |  | > 100 µM | > 100 µM | > 100 | > 100 µM | > 100 µM |  |  |  |  |  |  |  |  |
| CCCCCCCCCCCCCCCC(=O)OCCOCCOCCOCc1ccccc1 |  |  | > 100 µM | > 100 µM |  | > 100 µM | > 100 µM | > 100 | > 100 µM | > 100 µM |  |  |  |  |  |  |  |  |
| O=C1CCC2(c3ccc(Cl)cc3)Nc3cc(Cl)ccc3N12 (centres undefined) | 10.7 µM | 12 µM | 25.2 µM | 25.3 µM |  | 18 µM | 27.7 µM |  | 24.4 µM | 24.5 µM |  |  |  |  |  |  |  |  |
| COC1C(OC(=S)Nc2ccccc2)c2ccccc2N1C(C)=O (centres undefined) | > 100 µM | > 100 µM |  | > 100 µM |  | > 100 µM | > 100 µM |  | > 100 µM |  |  |  |  |  |  |  |  |  |
| Cc1nc(Nc2ccc(Cl)cc2)sc1C(=O)NNC(=S)NN | 88.5 µM | 50.2 µM | 32.9 µM | 35 µM |  | 43.6 µM | 64.3 µM | 38 | 42.3 µM | 35.5 µM |  |  |  |  |  |  |  |  |
| CCOC(=O)N[C@H]1CCc2cc(OC)c(OC)c(OC)c2-c2ccc(SC)c(=O)cc21 | > 100 µM | < 0.01 µM |  | > 100 µM |  |  |  | 3.29 |  | > 100 µM | < 0.0122 | > 55.6 | < 0.01 |  |  |  |  |  |
| NC1CCN(Cc2ccccc2)CC1 | > 100 µM | > 100 µM | > 100 µM |  |  | > 100 µM | > 100 µM |  | > 100 µM |  |  |  | > 100 | > 100 | > 100 µM | 24.2 | > 100 | > 100 |
| COC(=O)/C(=C/c1ccc(OC)cc1)C(C(=O)O)=C1CCCC1 | > 100 µM | > 100 µM | > 100 µM |  |  | > 100 µM | > 100 µM | > 100 | > 100 µM |  |  |  |  |  |  |  |  |  |
| O=C(Nc1cccc(Cl)c1)C(=O)C(C(=O)c1ccc2ccccc2c1)C1OC(=O)c2ccccc21 (centres undefined) | 52.4 µM | 40.7 µM | 30.3 µM | 25.8 µM |  | 38.1 µM |  | 11.5 | 60.3 µM | 30.8 µM |  |  |  |  |  |  |  |  |
| CCOC(=O)N1CCC(N[C@@H]2c3cc4c(cc3C(c3cc(OC)c(O)c(OC)c3)C3C(=O)OC[C@@H]32)OCO4)CC1 (some centres undefined) | 18.9 µM and > 25 µM | 2 µM and 5.46 µM | 5.71 µM and 5.32 µM | 27.1 µM and 16.4 µM |  | 15.1 µM and 13.1 µM | 15.2 µM and 24.8 µM |  | 9.2 µM and 7.56 µM | 9.79 µM and 9.69 µM |  |  |  |  | 0.221 µM and 0.468 µM |  |  |  |
| C#CC1/C(=C\C(=O)OC)CCCC1O (centres undefined) | > 100 µM | > 100 µM | > 100 µM |  |  | > 100 µM | > 100 µM | > 100 | > 100 µM | > 100 µM |  |  |  |  |  |  |  |  |
| O=C(CC1C(=O)Nc2ccccc2S1=O)Nc1cc(Cl)ccc1Cl (centres undefined) | > 100 µM | > 100 µM | > 100 µM | > 100 µM |  |  | > 100 µM | > 100 |  | > 100 µM |  |  |  |  |  |  |  |  |
| CN(C)C(=S)/N=c1\sn(C)/c(=N\C(=S)N(C)C)n1C |  | > 100 µM | > 100 µM | > 100 µM |  | > 100 µM | > 100 µM | > 100 | > 100 µM | 75.7 µM |  |  |  |  |  |  |  |  |
| c1ccc2c(OCCSCCCCCCCCCCSCCOc3cccc4ccccc34)cccc2c1 | > 100 µM | > 100 µM | > 100 µM | > 100 µM |  | > 100 µM | > 100 µM | > 100 | > 100 µM | > 100 µM |  |  |  |  |  |  |  |  |
| CSc1nc(SC)c2c(C#N)[nH]nc2n1 | > 100 µM |  | > 100 µM | > 100 µM |  | > 100 µM | > 100 µM | > 100 | > 100 µM | > 100 µM |  |  |  |  |  |  |  |  |
